Test results: ChEMBL document CHEMBL3779776, “Synthesis and biological evaluation of 2-aroylbenzofurans, rugchalcones A, B and their derivatives as potent anti-inflammatory agents” (Bioorg Med Chem Lett, 2016)
pIC50: −log10 of the molar value.

Experiments:
[1] = tested on: RAW264.7; test: Antiinflammatory activity in mouse RAW264.7 cells assessed as inhibition of LPS-induced NO production at 10 uM after 18 hrs by Griess assay relative to control; assay type: functional; settings: RAW264.7, 18 h
[2] = Cytotoxicity against mouse RAW264.7 cells assessed as cell viability at 10 uM after 24 hrs by MTS assay relative to control; assay type: cell-based; settings: read-out: Activity
[3] = tested on: RAW264.7; test: Inhibition of LPS-induced iNOS expression in mouse RAW264.7 cells at 10 uM after 18 hrs by Western blot method relative to LPS; assay type: functional
[4] = tested on: RAW264.7; test: Antiinflammatory activity in mouse RAW264.7 cells assessed as inhibition of LPS-induced NO production after 18 hrs by Griess assay; assay type: functional, cell-based; settings: RAW264.7, 18 h
[5] = Cytotoxicity against mouse RAW264.7 cells assessed as cell viability at 1 uM after 24 hrs by MTS assay relative to control; assay type: cell-based; settings: read-out: Activity
[6] = tested on: RAW264.7; test: Antiinflammatory activity in mouse RAW264.7 cells assessed as inhibition of LPS-induced NO production at 1 uM after 18 hrs by Griess assay relative to control; assay type: functional; settings: RAW264.7, 18 h

For `COc1cc2oc(C(=O)c3ccc(O)cc3)cc2cc1O`, the inhibition at 10 µM [1] was 99.3%, the viability at 24 h, 10 µM [2] was 93.1% and the “fold change (FC)” value [3] was 0.26. For the same molecule, the pIC50 [4] was 5.38, the viability at 24 h, 1 µM [5] was 97.9% and the inhibition at 1 µM [6] was 0%.
In the case of `COc1ccc(C(=O)c2cc3cc(O)c(OC)cc3o2)cc1`, the inhibition at 10 µM [1] was 43%, the viability at 24 h, 10 µM [2] was 100% and the “fold change (FC)” value [3] was 0.52. It also gave a pIC50 [4] of 4.97, a viability at 24 h, 1 µM [5] of 98.1% and an inhibition at 1 µM [6] of 16.2%.
With `COc1cc2cc(C(=O)c3ccc(O)cc3)oc2cc1OC` the inhibition at 10 µM [1] was 25.8%, the viability at 24 h, 10 µM [2] was 102% and the “fold change (FC)” value [3] was 0.46. It also gave a pIC50 [4] of 4.98, a viability at 24 h, 1 µM [5] of 106% and an inhibition at 1 µM [6] of 8.6%.
In the case of `COc1cc2cc(C(=O)c3ccc(O)cc3)oc2cc1O`, the inhibition at 10 µM [1] was 99.6%, the viability at 24 h, 10 µM [2] was 95.9% and the “fold change (FC)” value [3] was 0.18. The pIC50 [4] was 6.24, the viability at 24 h, 1 µM [5] was 98.1% and the inhibition at 1 µM [6] was 54.2%.
For `COc1ccc(C(=O)c2cc3cc(OC)c(OC)cc3o2)cc1`, the inhibition at 10 µM [1] was 29.8%, the viability at 24 h, 10 µM [2] was 98.6% and the “fold change (FC)” value [3] was 0.65. It also gave a pIC50 [4] of 4.93, a viability at 24 h, 1 µM [5] of 105% and an inhibition at 1 µM [6] of 9.5%.
For `COc1ccc(C(=O)c2cc3cc(OC)c(O)cc3o2)cc1`, the inhibition at 10 µM [1] was 29.7%, the viability at 24 h, 10 µM [2] was 91.8% and the “fold change (FC)” value [3] was 0.77. It also gave a pIC50 [4] of 4.88, a viability at 24 h, 1 µM [5] of 93.2% and an inhibition at 1 µM [6] of 7.8%.
In the case of `COc1ccc(C(=O)c2cc3cc(O)c(O)cc3o2)cc1`, the inhibition at 10 µM [1] was 96.8%, the viability at 24 h, 10 µM [2] was 101% and the “fold change (FC)” value [3] was 0.19. For the same molecule, the pIC50 [4] was 5.72, the viability at 24 h, 1 µM [5] was 95.1% and the inhibition at 1 µM [6] was 19.7%.
For `O=C(c1ccc(O)cc1)c1cc2cc(O)c(O)cc2o1`, the inhibition at 10 µM [1] was 74.3%, the viability at 24 h, 10 µM [2] was 100% and the “fold change (FC)” value [3] was 0.36. The pIC50 [4] was 6.00, the viability at 24 h, 1 µM [5] was 106% and the inhibition at 1 µM [6] was 42.9%.
`CNC(=N)NCCC[C@H](N)C(=O)O` [TILARGININE] showed an inhibition at 10 µM [1] of 92.4%, a viability at 24 h, 10 µM [2] of 97.6% and a pIC50 [4] of 5.57. For the same molecule, the viability at 24 h, 1 µM [5] was 98.6% and the inhibition at 1 µM [6] was 20.9%.
